Measurements reported in patent US20220331303A1, “USE OF AN OREXIN 2 RECEPTOR AGONIST FOR THE TREATMENT OF EXCESSIVE SLEEPINESS” (Takeda Pharmaceutical Company Limited, priority 2019, published 2022).

Tested on: sleep-deprived healthy volunteers
Experiment: Polysomnography (PSG) of recovery sleep after sleep deprivation in healthy volunteers
Format: in vivo, human
Procedure: Exploratory objectives in sleep-deprived healthy volunteers were as follows: • 1. To compare the effects of Compound A (LD and HD) and modafinil (300 mg) on promoting wakefulness as measured by MWT. • 2. To determine PK-PD relationships for selected PD measures. • 3. To evaluate PK-BP relationships in BP change after Compound A administration. • 4. To compare various polysomnography (PSG) parameters between Day −1 (predose) and Day 2 (recovery sleep). • 5. To determine whether there is any difference in the PSG parameters on Day 2 (recovery sleep) between Compound A and placebo or modafinil. • 6. To evaluate the continuous electroencephalogram (EEG) obtained during the MWTs for power spectra changes for Compound A (LD and HD) versus placebo, Compound A (LD and HD) versus modafinil, and modafinil versus placebo.
During the day before dosing on Day 1, participants were administered the KSS at scheduled timepoints. A practice MWT session was performed on Day 1 treatment period 1 (only once during the entire study) to familiarize subjects with the procedures. Study drug was administered in the clinic in the evening on Day 1 of each treatment period. Subjects underwent the MWT and KSS at specified timepoints after the start of the infusion. Subjects were required to stay awake between the MWT tests. Following completion of the IV infusion on Day 2, subjects underwent an additional MWT test. When the final MWT test and cognitive testing were completed, subjects were allowed to sleep (recovery sleep) for approximately 6 hours. PSG recording was collected during this time. Subjects were discharged from the unit after completion on Day 2 with continuing actigraphy upon discharge (to begin on Day −6 before the next treatment period). The interval between each subsequent treatment period was at least 7 days to ensure that the subject's circadian rhythm had returned to a normal cycle. Subject's vital signs, including BP, were monitored during the dosing and testing period. Blood samples for determination of Compound A plasma concentrations were collected at specified timepoints on Days 1 and 2 of each treatment period. Subjects completed the Columbia-Suicide Severity Rating Scale (C-SSRS) during screening, before study drug administration, and before discharge on Day 2 of each treatment period.
The PSGs assess recovery sleep during the day after the end of the sleep deprivation period. There were no corrections for multiple comparisons. […]

[1] = M: Modafinil 300 mg, recovery sleep
[2] = Modafinil 300 mg, recovery sleep

In the case of `NC(=O)C[S+]([O-])C(c1ccccc1)c1ccccc1` (stereo not shown) [Modafinil, modafinil, reference compound], the “Stage N3 Duration LS Mean” value (M: Modafinil 300 mg) is reported as 51.61 min, the “Stage N3 Duration LS Mean Difference vs placebo Estimate” value (M: Modafinil 300 mg) is reported as -29.78 min and the “Stage REM % LS Mean” value (M: Modafinil 300 mg) is reported as 17.46%. For the same compound, the “Stage REM % LS Mean Difference vs placebo Estimate” value (M: Modafinil 300 mg) was −3.92%, the “Stage REM Duration LS Mean” value (M: Modafinil 300 mg) was 41.38 min and the “Stage REM Duration LS Mean Difference vs placebo Estimate” value (M: Modafinil 300 mg) was -25.18 min. For the same compound, the “Stage Wake % LS Mean” value (M: Modafinil 300 mg) was 23.01%, the “Stage Wake % LS Mean Difference vs placebo Estimate” value (M: Modafinil 300 mg) was 12.71% and the “Stage Wake Duration LS Mean” value (M: Modafinil 300 mg) was 60.92 min. For the same compound, the “Stage Wake Duration LS Mean Difference vs placebo Estimate” value (M: Modafinil 300 mg) was 25.39 min, the “Total Arousal Index LS Mean” value (M: Modafinil 300 mg) was 14.28 and the “Total Arousal Index LS Mean Difference vs placebo Estimate” value (M: Modafinil 300 mg) was 4.28. The “Total Arousal LS Mean” value (M: Modafinil 300 mg) was 51.11, the “Total Arousal LS Mean Difference vs placebo Estimate” value (M: Modafinil 300 mg) was 0.70 and the “Total Leg Movements LS Mean” value (M: Modafinil 300 mg) was 23.91. The “Total Leg Movements LS Mean Difference vs placebo Estimate” value (M: Modafinil 300 mg) was 4.97, the “Total Leg Movements N1 LS Mean” value (M: Modafinil 300 mg) was 2.19 and the “Total Leg Movements N1 LS Mean Difference vs placebo Estimate” value (M: Modafinil 300 mg) was 0.93. The “Total Leg Movements N2 LS Mean” value (M: Modafinil 300 mg) was 10.10, the “Total Leg Movements N2 LS Mean Difference vs placebo Estimate” value (M: Modafinil 300 mg) was 1.56 and the “Total Leg Movements N3 LS Mean” value (M: Modafinil 300 mg) was 2.61. The “Total Leg Movements N3 LS Mean Difference vs placebo Estimate” value (M: Modafinil 300 mg) was 0.99, the “Total Leg Movements REM LS Mean” value (M: Modafinil 300 mg) was 5.75 and the “Total Leg Movements REM LS Mean Difference vs placebo Estimate” value (M: Modafinil 300 mg) was 0.00. For the same compound, the “Total Leg Movements with Awakening LS Mean” value (M: Modafinil 300 mg) was 3.14, the “Total Leg Movements with Awakening LS Mean Difference vs placebo Estimate” value (M: Modafinil 300 mg) was 1.39 and the “Total Leg Movements with Microarous LS Mean” value (M: Modafinil 300 mg) was 3.44. For the same compound, the “Total Leg Movements with Microarous LS Mean Difference vs placebo Estimate” value (M: Modafinil 300 mg) was 1.43, the “Total Leg Movements with Resp Event LS Mean” value (M: Modafinil 300 mg) was 0.04 and the “Total Leg Movements with Resp Event LS Mean Difference vs placebo Estimate” value (M: Modafinil 300 mg) was −0.01. The “Total Leg Movements without Arousal LS Mean” value (M: Modafinil 300 mg) was 20.42, the “Total Leg Movements without Arousal LS Mean Difference vs placebo Estimate” value (M: Modafinil 300 mg) was 3.50 and the “Total Recording Time LS Mean” value (M: Modafinil 300 mg) was 321.98 min. The “Total Recording Time LS Mean Difference vs placebo Estimate” value (M: Modafinil 300 mg) was -34.92 min, the “Total Sleep Time LS Mean” value (M: Modafinil 300 mg) was 224.54 min and the “Total Sleep Time LS Mean Difference vs Placebo Estimate” value (M: Modafinil 300 mg) was -84.93 min. The “Wake After Persistent Sleep LS Mean” value (M: Modafinil 300 mg) was 47.63 min, the “Wake After Persistent Sleep LS Mean Difference vs placebo Estimate” value (M: Modafinil 300 mg) was 13.00 min and the “Wake After Sleep Onset LS Mean” value (M: Modafinil 300 mg) was 60.92 min. The “Wake After Sleep Onset LS Mean Difference vs placebo Estimate” value (M: Modafinil 300 mg) was 25.39 min, the “PSG Awakenings LS Mean” value [1] was 5.38 and the “PSG Awakenings LS Mean Difference vs Placebo Estimate” value [1] was 0.89. The “PSG N1 Latency LS Mean” value [1] was 6.07 min, the “PSG N1 Latency LS Mean Difference vs Placebo Estimate” value [1] was 0.71 min and the “PSG N2 Latency LS Mean” value [1] was 8.62 min. The “PSG N2 Latency LS Mean Difference vs Placebo Estimate” value [1] was 1.98 min, the “PSG N3 Latency LS Mean” value [1] was 38.00 min and the “PSG N3 Latency LS Mean Difference vs Placebo Estimate” value [1] was 10.73 min. The “PSG Per. Slp LS Mean” value [1] was 26.19 min, the “PSG Per. Slp LS Mean Difference vs Placebo Estimate” value [1] was 19.32 min and the “PSG REM Latency LS Mean” value [1] was 71.67 min. For the same compound, the “PSG REM Latency LS Mean Difference vs Placebo Estimate” value [1] was 16.73 min, the “PSG Sleep Efficiency LS Mean” value [1] was 68.28% and the “PSG Sleep Efficiency LS Mean Difference vs Placebo Estimate” value [1] was −18.44%. The “PSG Sleep Onset LS Mean” value [1] was 5.99 min, the “PSG Sleep Onset LS Mean Difference vs Placebo Estimate” value [1] was 2.00 min and the “PSG Spontaneous Arousal Index LS Mean” value [1] was 11.91. For the same compound, the “PSG Spontaneous Arousal Index LS Mean Difference vs Placebo Estimate” value [1] was 2.98, the “PSG Spontaneous Arousal LS Mean” value [1] was 42.14 and the “PSG Spontaneous Arousal LS Mean Difference vs Placebo Estimate” value [1] was −2.93. For the same compound, the “PSG Stage N1 % LS Mean” value [1] was 10.14%, the “PSG Stage N1 % LS Mean Difference vs Placebo Estimate” value [1] was 4.05% and the “PSG Stage N1 Duration LS Mean” value [1] was 19.12 min. For the same compound, the “PSG Stage N1 Duration LS Mean Difference vs Placebo Estimate” value [1] was 0.72 min, the “PSG Stage N2 % LS Mean” value [1] was 50.94% and the “PSG Stage N2 % LS Mean Difference vs Placebo Estimate” value [1] was 4.24%. The “PSG Stage N2 Duration LS Mean” value [1] was 111.09 min, the “PSG Stage N2 Duration LS Mean Difference vs Placebo Estimate” value [1] was -32.99 min and the “PSG Stage N3 % LS Mean” value [1] was 21.61%. For the same compound, the “PSG Stage N3 % LS Mean Difference vs Placebo Estimate” value [1] was −4.22%, the “PSG sleep efficiency, LS mean difference vs placebo” value [2] was −18.44% and the “PSG spontaneous arousal index, LS mean difference vs placebo” value [2] was 2.98. The “PSG stage N1 %, LS mean difference vs placebo” value [2] was 4.05%, the “PSG stage N2 duration, LS mean difference vs placebo” value [2] was -32.99 min and the “PSG stage N3 %, LS mean difference vs placebo” value [2] was −4.22%. For the same compound, the “PSG stage N3 duration, LS mean difference vs placebo” value [2] was −29.78, the “PSG stage REM %, LS mean difference vs placebo” value [2] was −3.92% and the “PSG stage REM duration, LS mean difference vs placebo” value [2] was -25.18 min. For the same compound, the “PSG stage wake %, LS mean difference vs placebo” value [2] was 12.71%, the “PSG stage wake duration, LS mean difference vs placebo” value [2] was 25.39 min and the “PSG time to per. slp (persistent sleep), LS mean difference vs placebo” value [2] was 19.32 min. For the same compound, the “PSG total arousal index, LS mean difference vs placebo” value [2] was 4.28, the “PSG total recording time, LS mean difference vs placebo” value [2] was -34.92 min and the “PSG total sleep time, LS mean difference vs placebo” value [2] was -84.93 min. The “PSG wake after sleep onset, LS mean difference vs placebo” value [2] was 25.39 min.
